Data reported in patent US20230040770A1, “HETEROCYCLIC COMPOUND AND USE THEREOF” (TAKEDA PHARMACEUTICAL COMPANY LIMITED, priority 2019, published 2023).

Assays:
[1] = target: T1, human orexin type 2 receptor (Homo sapiens, UniProt O43614); assay: Measurement of orexin type 2 receptor agonist activity (calcium indicator fluorescence, CHO cells forcibly expressing human OX2 receptor); type: cell-based; conditions: compound at 3 μM; 0% = DMSO, 100% = orexin A (human) 10 nM
T1 construct: expressed in transfected cells
T1 sequence (O43614 1-444): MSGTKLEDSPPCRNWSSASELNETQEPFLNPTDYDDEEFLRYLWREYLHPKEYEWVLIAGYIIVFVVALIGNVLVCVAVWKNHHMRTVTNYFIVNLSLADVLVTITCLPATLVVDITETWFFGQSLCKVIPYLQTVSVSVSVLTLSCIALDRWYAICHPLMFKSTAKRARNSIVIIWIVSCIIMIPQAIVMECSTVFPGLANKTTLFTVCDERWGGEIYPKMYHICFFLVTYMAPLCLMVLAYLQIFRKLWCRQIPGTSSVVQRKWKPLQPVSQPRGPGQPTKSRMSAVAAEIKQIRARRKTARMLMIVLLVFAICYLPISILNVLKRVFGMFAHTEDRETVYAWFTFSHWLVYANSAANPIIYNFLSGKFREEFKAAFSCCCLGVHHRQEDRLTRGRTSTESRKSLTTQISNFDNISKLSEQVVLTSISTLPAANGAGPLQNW
Procedure, shortened: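 Agonist response normalised between vehicle (0%) and orexin A at 10 nM final (100%), from kinetic Fluo-4 calcium signals recorded for about 2 min after compound addition. Cells: stable human OX2R CHO clone, dye-loaded 30 min at 37 °C plus 30 min at room temperature.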

cynomolgus monkeys = assay: Evaluation of wake-promoting effects in cynomolgus monkeys (EEG/EMG); type: in vivo, cynomolgus monkey; conditions: Macaca fascicularis, sc; 0.3 mg/kg s.c. at ZT12; time spent in wakefulness for 4 h after administration; read-out: Wakefulness time (% of vehicle treatment) (Mean)
Experimental: The wake-promoting effects were evaluated by measuring the electroencephalogram (EEG) and electromyogram (EMG) in cynomolgus monkeys. Under isoflurane anesthesia (1-5%, Pfizer Japan Inc., Tokyo, Japan), male cynomolgus monkeys (3-5 years old, Hamri Co., Ltd., Ibaraki, Japan) were surgically implanted with radio-telemetry transmitters (TL10M3-D70-EEE, Data Sciences International Inc., MN, USA). EEG electrodes were screwed into the skull at the parietal area. EMG electrodes were implanted on the cervical muscles. After the surgery, each monkey was given penicillin (100,000 units/head, i.m., Meiji Seika Pharma Co., Ltd., Tokyo, Japan), buprenorphine (0.02 mg/kg, i.m., Otsuka Pharmaceutical Co., Ltd., Tokyo, Japan) and prednisolone (1 mg/kg, s.c., Kyoritsu Seiyaku Co., Ltd., Tokyo, Japan) daily for one week. After at least a 1-month recovery period in home cages, the monkeys were habituated to the recording chamber placed in a soundproof room. EEG and EMG signals were recorded using the telemetry system (Dataquest ART software, Data Sciences International Inc., MN, USA) and the signals were analyzed using SleepSign software (Kissei Comtec Co., Ltd., Nagano, Japan). After confirming long sleep in dark phase in the experimental room, we used animals to examine the wake-promoting effect of compounds.
Oral test compounds (3 or 10 mg/kg) suspended in 0.5% methylcellulose aqueous solution, or vehicle (i.e., 0.5% methylcellulose aqueous solution) was administered orally (p.o.) to monkeys at zeitgeber time 12 (ZT12) in a volume of 5 mL/kg body weight in cross-over design or pre-post design (n=1-4). EEG and EMG recordings were performed for 4 h after the compound administration. The time spent in wakefulness for 4 h after administration (% of vehicle treatment) was calculated by using SleepSign.
Parenteral test compounds (0.1 or 0.3 mg/kg) dissolved in a mixed solution comprising 5% DMSO, 5% Cremophor EL, 20% PEG400 and 70% soluplus (1% (w/v)), or vehicle (i.e., a mixed solution comprising 5% DMSO, 5% Cremophor EL, 20% PEG400 and 70% soluplus (1% (w/v))) was administered subcutaneously (s.c.) to monkeys at ZT12 in a volume of 0.5 mL/kg body weight in a pre-post design (n=1-2). EEG and EMG recordings were performed for 4 h after the compound administration. The time spent in wakefulness for 4 h after administration (% of vehicle treatment) was calculated by using SleepSign.

Row | OX2R agonist activity (3 μM, %) [1] | Structure (SMILES) | response vs control in vivo at 0.3 mg/kg (cynomolgus monkeys)
1 | 78% | Cc1cccc(-c2cccc(C[C@H]3[C@@H](NS(=O)(=O)N(C)C)[C@@H](F)CN3C(=O)C3(O)CCC3)c2F)c1 [Example 462, N′-[(2S,3R,4S)-4-fluoro-2-[(2-fluoro-3′-methyl[1,1′-biphenyl]-3-yl)methyl]-1-(1-hydroxycyclobutane-1-carbonyl)pyrrolidin-3-yl]-N,N-dimethylsulfuric diamide] | 365%
2 | 102% | CCS(=O)(=O)N[C@H]1[C@@H](F)CN(C(=O)C2CCO2)[C@H]1Cc1cccc(-c2cccc(Cl)c2)c1F (stereo partly drawn) [Example 422, N-[(2S,3R,4S)-2-[(3′-chloro-2-fluoro[1,1′-biphenyl]-3-yl)methyl]-4-fluoro-1-(oxetane-2-carbonyl)pyrrolidin-3-yl]ethanesulfonamide] | 
3 | 97% | CN(C)C(=O)N1CC(F)(F)[C@H](NS(=O)(=O)N(C)C)[C@@H]1Cc1cccc(-c2ccccc2)c1F [Example 138, (2S,3R)-3-[(dimethylsulfamoyl)amino]-4,4-difluoro-2-[(2-fluoro[1,1′-biphenyl]-3-yl)methyl]-N,N-dimethylpyrrolidine-1-carboxamide] | 
4 | 94% | CS(=O)(=O)N[C@@H]1[C@H](Cc2cccc(-c3cccc(F)c3F)c2F)N(C(=O)[C@H]2CCO2)CC1(F)F [Example 121, N-{(2S,3R)-4,4-difluoro-1-((2R)-oxetane-2-carbonyl)-2-[(2,2′,3′-trifluoro[1,1′-biphenyl]-3-yl)methyl]pyrrolidin-3-yl}methanesulfonamide] | 
5 | 97% | CS(=O)(=O)N[C@@H]1[C@H](Cc2cccc(-c3cccc(F)c3)c2F)N(C(=O)C2CC(F)C2)CC1(F)F (stereo partly drawn) [Example 392, N-[(2S,3R)-2-[(2,3′-difluoro[1,1′-biphenyl]-3-yl)methyl]-4,4-difluoro-1-(3-fluorocyclobutane-1-carbonyl)pyrrolidin-3-yl]methanesulfonamide] | 
6 | 101% | CC(C)(O)C(=O)N1CC(F)(F)[C@H](NS(C)(=O)=O)[C@@H]1Cc1cccc(-c2cccc(F)c2)c1F [Example 7, N-[(2S,3R)-2-[(2,3′-difluoro[1,1′-biphenyl]-3-yl)methyl]-4,4-difluoro-1-(2-hydroxy-2-methylpropanoyl)pyrrolidin-3-yl]methanesulfonamide] | 
7 | 94% | CS(=O)(=O)N[C@@H]1[C@H](Cc2cccc(-c3cc(F)cc(Cl)c3)c2F)N(C(=O)C2CC2)CC1(F)F [Example 245, N-[(2S,3R)-2-[(3′-chloro-2,5′-difluoro[1,1′-biphenyl]-3-yl)methyl]-1-(cyclopropanecarbonyl)-4,4-difluoropyrrolidin-3-yl]methanesulfonamide] | 
8 | 95% | O=C(C1CCO1)N1C[C@H](F)[C@H](NS(=O)(=O)C2CC2)[C@@H]1Cc1cccc(-c2cc(F)cc(F)c2)c1F (stereo partly drawn) [Example 493, N-{(2S,3R,4S)-4-fluoro-1-(oxetane-2-carbonyl)-2-[(2,3′,5′-trifluoro[1,1′-biphenyl]-3-yl)methyl]pyrrolidin-3-yl}cyclopropanesulfonamide] | 
9 | 106% | CCS(=O)(=O)N[C@@H]1[C@H](Cc2cccc(-c3cccc(C)c3)c2F)N(C(=O)C(C)(C)O)CC1(F)F [Example 465, N-[(2S,3R)-4,4-difluoro-2-[(2-fluoro-3′-methyl[1,1′-biphenyl]-3-yl)methyl]-1-(2-hydroxy-2-methylpropanoyl)pyrrolidin-3-yl]ethanesulfonamide] | 
10 | 95% | Cc1cccc(-c2cccc(C[C@H]3[C@@H](NS(=O)(=O)C4CC4)C(F)(F)CN3C(=O)N(C)C)c2F)c1 [Example 425, (2S,3R)-3-[(cyclopropanesulfonyl)amino]-4,4-difluoro-2-[(2-fluoro-3′-methyl[1,1′-biphenyl]-3-yl)methyl]-N,N-dimethylpyrrolidine-1-carboxamide] | 
11 | 98% | CCS(=O)(=O)N[C@H]1[C@@H](F)CN(C(=O)N(C)C)[C@H]1Cc1cccc(-c2cccc(F)c2F)c1F [Example 330, (2S,3R,4S)-3-[(ethanesulfonyl)amino]-4-fluoro-N,N-dimethyl-2-[(2,2′,3′-trifluoro[1,1′-biphenyl]-3-yl)methyl]pyrrolidine-1-carboxmaide] | 
12 | 95% | CS(=O)(=O)N[C@@H]1[C@H](Cc2cccc(-c3cccc(F)c3)c2F)N(C(=O)[C@H]2CCO2)CC1(F)F [Example 81, N-[(2S,3R)-2-[(2,3′-difluoro[1,1′-biphenyl]-3-yl)methyl]-4,4-difluoro-1-((2R)-oxetane-2-carbonyl)pyrrolidin-3-yl]methanesulfonamide] | 
13 | 100% | CCS(=O)(=O)N[C@@H]1[C@H](Cc2cccc(-c3ccc(F)c(C)c3)c2F)N(C(=O)C2CCO2)CC1(F)F (stereo partly drawn) [Example 476, N-[(2S,3R)-2-[(2,4′-difluoro-3′-methyl[1,1′-biphenyl]-3-yl)methyl]-4,4-difluoro-1-(oxetane-2-carbonyl)pyrrolidin-3-yl]ethanesulfonamide] | 
14 | 98% | CCS(=O)(=O)N[C@@H]1[C@H](Cc2cccc(-c3cccc(OC)c3)c2F)N(C(=O)C(C)C)CC1(F)F [Example 511, N-[(2S,3R)-4,4-difluoro-2-[(2-fluoro-3′-methoxy[1,1′-biphenyl]-3-yl)methyl]-1-(2-methylpropanoyl)pyrrolidin-3-yl]ethanesulfonamide] | 
15 | 100% | CCS(=O)(=O)N[C@H]1[C@@H](F)CN(C(=O)C2CC2)[C@H]1Cc1cccc(-c2cc(F)cc(Cl)c2)c1F [Example 517, N-[(2S,3R,4S)-2-[(3′-chloro-2,5′-difluoro[1,1′-biphenyl]-3-yl)methyl]-1-(cyclopropanecarbonyl)-4-fluoropyrrolidin-3-yl]ethanesulfonamide] | 
16 | 102% | CCS(=O)(=O)N[C@@H]1[C@H](Cc2cccc(-c3ccccc3)c2F)N(C(=O)C2CCO2)CC1(F)F (stereo partly drawn) [Example 46, N-[(2S,3R)-4,4-difluoro-2-[(2-fluoro[1,1′-biphenyl]-3-yl)methyl]-1-(oxetane-2-carbonyl)pyrrolidin-3-yl]ethanesulfonamide] | 
17 | 95% | CCS(=O)(=O)N[C@@H]1[C@H](Cc2cccc(-c3cc(F)ccc3F)c2F)N(C(=O)[C@H]2C[C@@H](F)C2)CC1(F)F [Example 381, N-{(2S,3R)-4,4-difluoro-1-((1s,3R)-3-fluorocyclobutane-1-carbonyl)-2-[(2,2′,5′-trifluoro[1,1′-biphenyl]-3-yl)methyl]pyrrolidin-3-yl}ethanesulfonamide] | 
18 | 96% | CCS(=O)(=O)N[C@H]1[C@@H](F)CN(C(=O)C(C)C)[C@H]1Cc1cccc(-c2cc(F)cc(F)c2)c1F [Example 296, N-{(2S,3R,4S)-4-fluoro-1-(2-methylpropanoyl)-2-[(2,3′,5′-trifluoro[1,1′-biphenyl]-3-yl)methyl]pyrrolidin-3-yl}ethanesulfonamide] | 
19 | 94% | CCS(=O)(=O)N[C@@H]1[C@H](Cc2cccc(-c3cccc(C)c3)c2F)N(C(=O)C2CCO2)CC1(F)F (stereo partly drawn) [Example 277, N-[(2S,3R)-4,4-difluoro-2-[(2-fluoro-3′-methyl[1,1′-biphenyl]-3-yl)methyl]-1-(oxetane-2-carbonyl)pyrrolidin-3-yl]ethanesulfonamide] | 
